Assay results taken from US9744152B2, “Vitamins C and K for treating polycystic diseases” (IC-MedTech Corporation, priority 2010, dated 2017).
Marks after values point to notes of the source that are not given here.

Columns and labels:
Pkd2^WS25/− mice = test: Body, liver and kidney weights in Pkd2^WS25/− mice after 6 weeks of treatment; assay type: in vivo, mouse; conditions: for Kidney Weight / Kidney Weight (%) / Liver Weight / Liver Weight (%): 6 weeks in drinking water; for Body Weight: 6 weeks in drinking water (VC 15 g/L; VK3 0.15 g/L; APATONE® 15 g/L + 0.15 g/L)
Description: (§1) Thirty seven PCK rats (20 females and 17 males) at age of 3 weeks were divided into four groups: (i) vitamin C (VC) treatment group: 5 females and 4 males; (ii) vitamin K3 (VK3) treatment group: 5 females and 4 males; (iii) APATONE® treatment group: 6 females and 5 males; and (iv) control group: 4 females and 4 males. Similarly, twenty Pkd2^WS25/− mice (12 females and 8 males) at age of 5 months were divided into four groups: (i) vitamin C (VC) treatment group: 3 females; (ii) vitamin K3 (VK3) treatment group: 2 females and 2 males; (iii) APATONE® treatment group: 4 females and 3 males; and (iv) control group: 3 females and 3 males.
(§2) The VC treatment groups were given vitamin C at a concentration of 15 g/L in drinking water. The VK3 treatment groups were given vitamin K3 at a concentration of 0.15 g/L in drinking water. The APATONE® treatment groups were given vitamins C and K3 at concentrations of 15 g/L and 0.15 g/L, respectively, in drinking water. The control groups were given drinking water only. Rats or mice in each group were allowed to drink freely.
(§3) The rats and mice were sacrificed after 6 weeks of treatment. The following parameters were analyzed: body weights, liver and kidney weights, serum biochemistry, renal and hepatic cystic and fibrotic areas, apoptotic and proliferation indices, expression of Cdc25A and its down-stream targets. […]

PCK rats = test: Body, liver and kidney weights in PCK rats after 6 weeks of treatment; assay type: in vivo, rat; conditions: for Kidney Weight / Kidney Weight (% bw) / Liver Weight / Liver Weight (% bw): 6 weeks in drinking water; for Body Weight: 6 weeks in drinking water (VC 15 g/L; VK3 0.15 g/L; APATONE® 15 g/L + 0.15 g/L)
Description: as §1, §2, §3

SMILES | Kidney Weight (Pkd2^WS25/− mice) | Kidney Weight (%) (Pkd2^WS25/− mice) | Liver Weight (Pkd2^WS25/− mice) | Liver Weight (%) (Pkd2^WS25/− mice) | Body Weight (Pkd2^WS25/− mice) | Body Weight (g) Change vs Ctrl (Pkd2^WS25/− mice) | Kidney Weight (% bw) Change vs Ctrl (Pkd2^WS25/− mice) | Kidney Weight (g) Change vs Ctrl (Pkd2^WS25/− mice) | Liver Weight (% bw) Change vs Ctrl (Pkd2^WS25/− mice) | Liver Weight (g) Change vs Ctrl (Pkd2^WS25/− mice) | Kidney Weight (PCK rats; Female) | Kidney Weight (% bw) (PCK rats; Female) | Liver Weight (PCK rats; Female) | Liver Weight (% bw) (PCK rats; Female) | Body Weight (PCK rats; Female) | Body Weight (g) Change vs Ctrl (PCK rats; Female) | Kidney Weight (% bw) Change vs Ctrl (PCK rats; Female) | Kidney Weight (g) Change vs Ctrl (PCK rats; Female) | Liver Weight (% bw) Change vs Ctrl (PCK rats; Female) | Liver Weight (g) Change vs Ctrl (PCK rats; Female) | further results
CC1=CC(=O)c2ccccc2C1=O [VK3, menadione] | 0.42 ± 0.01 g | 1.53 ± 0.05% | 1.64 ± 0.15 g | 5.87 ± 0.36% | 27.9 ± 1.9 g | 5.8% | −19.0%* | −14.3%* | −27.1%* | −22.6%* | 3.78 ± 0.09 g | 1.36 ± 0.13 % bw | 15.5 ± 0.6 g | 5.60 ± 0.13 % bw | 276 ± 9 g | 2.2% | −8.1%* | −5.2%* | −11.3%* | −9.2%* | Kidney Weight (PCK rats; Male): 4.57 ± 0.13 g; Kidney Weight (% bw) (PCK rats; Male): 1.11 ± 0.11 % bw; Liver Weight (PCK rats; Male): 20.8 ± 0.5 g; Liver Weight (% bw) (PCK rats; Male): 5.12 ± 0.09 % bw; Body Weight (PCK rats; Male): 408 ± 16 g; Body Weight (g) Change vs Ctrl (PCK rats; Male): −1.1%; Kidney Weight (% bw) Change vs Ctrl (PCK rats; Male): −6.7%*; Kidney Weight (g) Change vs Ctrl (PCK rats; Male): −6.5%*; Liver Weight (% bw) Change vs Ctrl (PCK rats; Male): −9.8%*; Liver Weight (g) Change vs Ctrl (PCK rats; Male): −10.9%*
O=C1O[C@H]([C@@H](O)CO)C(O)=C1O [VC, L-ascorbic acid] | 0.46 ± 0.04 g | 1.76 ± 0.16% | 2.29 ± 0.43 g | 9.29 ± 2.01% | 26.7 ± 2.0 g | 1.5% | −6.7% | −6.1% | 15.4% | 8.0% | 3.88 ± 0.19 g | 1.47 ± 0.11 % bw | 16.6 ± 1.3 g | 6.36 ± 0.23 % bw | 261 ± 10 g | −3.3% | −0.7% | −2.8% | 0.8% | −2.8% | Kidney Weight (PCK rats; Male): 4.95 ± 0.18 g; Kidney Weight (% bw) (PCK rats; Male): 1.19 ± 0.13 % bw; Liver Weight (PCK rats; Male): 23.3 ± 1.8 g; Liver Weight (% bw) (PCK rats; Male): 5.61 ± 0.14 % bw; Body Weight (PCK rats; Male): 416 ± 13 g; Body Weight (g) Change vs Ctrl (PCK rats; Male): 0.8%; Kidney Weight (% bw) Change vs Ctrl (PCK rats; Male): 0%; Kidney Weight (g) Change vs Ctrl (PCK rats; Male): 1.2%; Liver Weight (% bw) Change vs Ctrl (PCK rats; Male): −1.2%; Liver Weight (g) Change vs Ctrl (PCK rats; Male): −0.4%
